From patent US20250313820A1, “PEPTIDES WITH MULTIVALENT EFFECTS” (In2Cure AB, priority 2021, published 2025)
Where a SMILES comes first, the peptide text is derived from it. Bridges are numbered along the chain shown (N, C = ends). [ ]: non-standard residue; d: D form. S5 = C=CCCC[C@](C)(N)C(=O)O

What was measured:
erythrocytes (RBCs) = assay type: cell-based, human; conditions: for Hemolytic activity, lysed RBCs: 1 h
Procedure: (§1) Fresh venous blood from healthy donors was collected in lepirudine tubes (50 μg mL-1). Then 50 μL of blood were transferred to round-bottom 96-wells plate containing 150 μL of peptides previously diluted in RPMI-1640—GlutaMAX-I without phenol red (Gibco). 1:4 diluted blood was used as control. 50 μL of blood mixed with 150 μl 5% Tween-20 were used as positive control. After 1 h incubation at 37° C. and 5% CO2, the plate was centrifuged at 800 g, 150 μL of each sample were transferred to a flat-bottom 96-wells plate and the absorbance at 450 nm was measured. The percentage of hemolysis was calculated following the formula reported below: […]
To evaluate the hemolytic effect of the peptides on erythrocytes the blood was collected as reported above and centrifuged at 250 g for 10 min. Then plasma was discarded, and red blood cells were washed with 150 mM NaCl in 10 mM Tris pH 7.4 for three times. Next, the pellet was dilute 100 times with saline Tris buffer. 100 μL of this solution were added to round-bottom 96-wells plate containing 100 μL of peptides previously diluted in saline Tris buffer. After 1 h incubation at 37° C. and 5% CO2, the plate was centrifuged and the absorbance at 450 nm was measured, then the percentage of erythrocyte lysis was determined using formula reported above.
(§2) Data shown are mean values±SEM obtained from at least four independent experiments all made in triplicate. For each experiment blood from a different donor was used.

whole blood = assay type: cell-based, human; conditions: for Hemolytic activity, lysed RBCs in whole blood: 1 h
Procedure: as §1, §2

[1] = target: T1, human neutrophil elastase (HNE) (Homo sapiens, UniProt P08246); assay type: in vitro ADME
T1 construct: purchased Calbiochem, Merk KGaA, Darmstadt, Germany
T1 sequence (P08246 30-267): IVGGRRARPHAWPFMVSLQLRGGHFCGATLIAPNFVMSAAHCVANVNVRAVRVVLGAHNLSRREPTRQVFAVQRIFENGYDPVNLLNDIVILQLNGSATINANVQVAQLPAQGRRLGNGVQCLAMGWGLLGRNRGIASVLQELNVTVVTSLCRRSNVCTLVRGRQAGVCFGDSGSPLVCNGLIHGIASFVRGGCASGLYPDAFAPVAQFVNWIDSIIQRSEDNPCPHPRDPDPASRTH
Procedure: (§3) Peptides were resuspended in endotoxin free water at concentration of 1 mM. […] All digestions were performed in three independent experiments.

[2] = target: T2, P. aeruginosa elastase (PE) (Pseudomonas aeruginosa, UniProt P14756); assay type: in vitro ADME; conditions: SDS-PAGE, digestion 0-18 h
T2 construct: purchased Calbiochem, Merk KGaA, Darmstadt, Germany
Procedure: All digestions were performed in three independent experiments.
Two μg of the peptide from each condition were loaded on 10-20% Novex Tricine pre-cast gel from Invitrogen (USA). The run was performed at 100 V for 100 min. The gel was stained by using Coomassie Brilliant blue (Invitrogen, USA). The image has been acquired with a Gel Doc Imager (Bio-Rad Laboratories, USA). Samples from three independent digestions were analysed.

trypsin = target: T3, trypsin (Sus scrofa, UniProt P00761); assay type: in vitro ADME
T3 construct: purchased Promega, Madison, WI, USA
Procedure: as §3

[3] = system: proteases (HNE, PE, V8, trypsin); assay: Proteolysis in vitro, fragments by LC-MS/MS
Procedure: as §3

T2 sequence (P14756 198-498): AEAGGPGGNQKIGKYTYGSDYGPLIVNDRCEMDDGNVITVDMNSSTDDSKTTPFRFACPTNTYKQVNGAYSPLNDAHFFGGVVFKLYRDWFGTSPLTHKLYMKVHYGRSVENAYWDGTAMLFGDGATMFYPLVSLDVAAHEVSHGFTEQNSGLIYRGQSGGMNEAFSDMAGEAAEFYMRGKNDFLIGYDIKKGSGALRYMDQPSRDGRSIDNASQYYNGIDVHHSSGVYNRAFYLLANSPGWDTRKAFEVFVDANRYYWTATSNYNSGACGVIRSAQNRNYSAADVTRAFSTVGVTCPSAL
T3 sequence (P00761 9-231): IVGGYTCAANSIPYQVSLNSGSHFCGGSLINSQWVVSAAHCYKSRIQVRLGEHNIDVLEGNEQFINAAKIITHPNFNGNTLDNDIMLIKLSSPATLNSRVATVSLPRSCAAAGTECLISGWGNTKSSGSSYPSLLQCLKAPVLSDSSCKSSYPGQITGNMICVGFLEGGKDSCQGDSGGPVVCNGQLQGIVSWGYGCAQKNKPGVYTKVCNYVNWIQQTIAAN

| Compound | hemolytic activity, RBCs or whole blood (heatmaps FIG. 4, FIG. 20a), in words (erythrocytes (RBCs)) | Hemolytic activity, lysed RBCs (erythrocytes (RBCs)) | hemolytic activity in whole blood, in words (whole blood) | Hemolytic activity, lysed RBCs in whole blood (whole blood) | stability in the presence of HNE enhanced up to (time) [1] | stability in the presence of PE enhanced up to (time) [2] | intact peptide still detected after trypsin digestion (time) (trypsin) | protection to proteolysis / fragments released (LC-MS/MS) [3] |
| --- | --- | --- | --- | --- | --- | --- | --- | --- |
| CC[C@H](C)[C@H](NC(=O)[C@H](Cc1c[nH]c2ccccc12)NC(=O)[C@H](CCCCN)NC(=O)[C@H](CCCCN)NC(=O)[C@H](CC(C)C)NC(=O)[C@H](CCCNC(=N)N)NC(=O)[C@H](Cc1ccccc1)NC(=O)[C@@H](NC(=O)[C@@H](N)Cc1c[nH]cn1)C(C)C)C(=O)N[C@@]1(C)CCCC=CCCC[C@@](C)(C(=O)N[C@@H](CCC(N)=O)C(=O)N[C@@H](Cc2ccccc2)C(=O)NCC(=O)N[C@@H](CCC(=O)O)C(=O)O)NC(=O)[C@H]([C@@H](C)CC)NC(=O)[C@H](C(C)C)NC(=O)[C@H](CCCCN)NC1=O [sHVF18, HVFRLKKWIXKVIXQFGE] | lower hemolytic activity if compared with sGKY25 | 35.4 ± 5.9% | significantly lower hemolytic activity | <1% | up to 18 h | up to 18 h | ≥ 18 h | complete protection to proteolysis |
| CC[C@H](C)[C@H](NC(=O)[C@H](Cc1c[nH]c2ccccc12)NC(=O)[C@H](CCCCN)NC(=O)[C@H](CCCCN)NC(=O)[C@H](CC(C)C)NC(=O)[C@H](CCCNC(=N)N)NC(=O)[C@H](Cc1ccccc1)NC(=O)[C@@H](NC(=O)[C@@H](N)CCCCN)C(C)C)C(=O)N[C@@]1(C)CCCC=CCCC[C@@](C)(C(=O)N[C@@H](CCC(N)=O)C(=O)N[C@@H](Cc2ccccc2)C(=O)NCC(=O)N[C@@H](CCC(=O)O)C(=O)O)NC(=O)[C@H]([C@@H](C)CC)NC(=O)[C@H](C(C)C)NC(=O)[C@H](CCCCN)NC1=O [sKVF18, KVFRLKKWIXKVIXQFGE] (H-KVFRLKKWI[S5]KVI[S5]QFGE-OH; staple 10-14) | – | 51.4 ± 4.9% | – | <1% | – | – | – | – |
| CC[C@H](C)[C@H](NC(=O)[C@H](Cc1c[nH]c2ccccc12)NC(=O)[C@H](CCCCN)NC(=O)[C@H](CCCCN)NC(=O)[C@H](CC(C)C)NC(=O)[C@H](CCCNC(=N)N)NC(=O)[C@H](Cc1ccccc1)NC(=O)[C@@H](NC(=O)[C@H](CCCNC(=N)N)NC(=O)[C@H](CCCNC(=N)N)NC(=O)[C@H](CCCNC(=N)N)NC(=O)[C@@H](N)CCCNC(=N)N)C(C)C)C(=O)N[C@@]1(C)CCCC=CCCC[C@@](C)(C(=O)N[C@@H](CCC(N)=O)C(=O)N[C@@H](Cc2ccccc2)C(=O)NCC(=O)N[C@@H](CCC(=O)O)C(=O)O)NC(=O)[C@H]([C@@H](C)CC)NC(=O)[C@H](C(C)C)NC(=O)[C@H](CCCCN)NC1=O [sRRRRVF18, RRRRVFRLKKWIX1KVIX2QFGE] (H-RRRRVFRLKKWI[S5]KVI[S5]QFGE-OH; staple 13-17) | – | 64.9 ± 11.4% | – | <1% | – | – | – | – |
| CC[C@H](C)[C@H](NC(=O)[C@H](Cc1c[nH]c2ccccc12)NC(=O)[C@H](CCCCN)NC(=O)[C@H](CCCCN)NC(=O)[C@H](CC(C)C)NC(=O)[C@H](CCCNC(=N)N)NC(=O)[C@H](Cc1ccccc1)NC(=O)[C@@H](NC(=O)[C@H](CCCNC(=N)N)NC(=O)[C@H](CCCNC(=N)N)NC(=O)[C@@H](N)CCCNC(=N)N)C(C)C)C(=O)N[C@@]1(C)CCCC=CCCC[C@@](C)(C(=O)N[C@@H](CCC(N)=O)C(=O)N[C@@H](Cc2ccccc2)C(=O)NCC(=O)N[C@@H](CCC(=O)O)C(=O)O)NC(=O)[C@H]([C@@H](C)CC)NC(=O)[C@H](C(C)C)NC(=O)[C@H](CCCCN)NC1=O [sRRRVF18, RRRVFRLKKWIX1KVIX2QFGE] (H-RRRVFRLKKWI[S5]KVI[S5]QFGE-OH; staple 12-16) | – | 61.5 ± 6.2% | – | <1% | – | – | – | – |
| CC[C@H](C)[C@H](NC(=O)[C@H](Cc1c[nH]c2ccccc12)NC(=O)[C@H](CCCCN)NC(=O)[C@H](CCCCN)NC(=O)[C@H](CC(C)C)NC(=O)[C@H](CCCNC(=N)N)NC(=O)[C@H](Cc1ccccc1)NC(=O)[C@@H](NC(=O)[C@H](CCCCN)NC(=O)[C@H](CCCCN)NC(=O)[C@@H](N)CCCCN)C(C)C)C(=O)N[C@@]1(C)CCCC=CCCC[C@@](C)(C(=O)N[C@@H](CCC(N)=O)C(=O)N[C@@H](Cc2ccccc2)C(=O)NCC(=O)N[C@@H](CCC(=O)O)C(=O)O)NC(=O)[C@H]([C@@H](C)CC)NC(=O)[C@H](C(C)C)NC(=O)[C@H](CCCCN)NC1=O [sKKKVF18, KKKVFRLKKWIX1KVIX2QFGE] (H-KKKVFRLKKWI[S5]KVI[S5]QFGE-OH; staple 12-16) | – | 47.1 ± 8.1% | – | <1% | – | – | – | – |
| CC[C@H](C)[C@H](NC(=O)[C@H](Cc1c[nH]c2ccccc12)NC(=O)[C@H](CCCCN)NC(=O)[C@H](CCCCN)NC(=O)[C@H](CC(C)C)NC(=O)[C@H](CCCNC(=N)N)NC(=O)[C@H](Cc1ccccc1)NC(=O)[C@@H](NC(=O)[C@@H](N)CCCNC(=N)N)C(C)C)C(=O)N[C@@]1(C)CCCC=CCCC[C@@](C)(C(=O)N[C@@H](CCC(N)=O)C(=O)N[C@@H](Cc2ccccc2)C(=O)NCC(=O)N[C@@H](CCC(=O)O)C(=O)O)NC(=O)[C@H]([C@@H](C)CC)NC(=O)[C@H](C(C)C)NC(=O)[C@H](CCCCN)NC1=O [sRVF18, RVFRLKKWIXKVIXQFGE] (H-RVFRLKKWI[S5]KVI[S5]QFGE-OH; staple 10-14) | – | 53.6 ± 3.8% | – | <1% | – | – | – | – |
| CC[C@H](C)[C@H](NC(=O)[C@H](Cc1c[nH]c2ccccc12)NC(=O)[C@H](CCCCN)NC(=O)[C@H](CCCCN)NC(=O)[C@H](CC(C)C)NC(=O)[C@H](CCCNC(=N)N)NC(=O)[C@H](Cc1ccccc1)NC(=O)[C@@H](NC(=O)[C@H](CCCCN)NC(=O)[C@H](CCCCN)NC(=O)[C@H](CCCCN)NC(=O)[C@@H](N)CCCCN)C(C)C)C(=O)N[C@@]1(C)CCCC=CCCC[C@@](C)(C(=O)N[C@@H](CCC(N)=O)C(=O)N[C@@H](Cc2ccccc2)C(=O)NCC(=O)N[C@@H](CCC(=O)O)C(=O)O)NC(=O)[C@H]([C@@H](C)CC)NC(=O)[C@H](C(C)C)NC(=O)[C@H](CCCCN)NC1=O [sKKKKVF18, KKKKVFRLKKWIX1KVIX2QFGE] (H-KKKKVFRLKKWI[S5]KVI[S5]QFGE-OH; staple 13-17) | – | 39.1 ± 5.4% | – | <1% | – | – | – | – |
